Legend:
[1] = test system: WT splenic T cells from c-Myc-EGFP knock-in mice; test: c-Myc mRNA after CD47 morpholino knockdown in T cells; assay type: cell-based, mouse
Procedure: RNA extraction and Real Time PCR: Total RNA was extracted using TRIzol® reagent (Invitrogen, Rockville, Md.) 24-36 hours after transfection or as indicated. Harvested mouse tissues were frozen in liquid nitrogen or placed into RNA Later™ RNA Stabilization Reagent (Ambion, Life Technologies, Grand Island, N.Y.). Whole organs (lungs, spleen, kidney, testis, skeletal muscle, brain, heart, and liver) were homogenized in TRIzol® reagent, and RNA was isolated, cDNA was prepared using First Maxima First Strand cDNA Synthesis kit for RT-qPCR (Fermentas Life Sciences, Glen Burnie, Md.). Real Time PCR was performed using the primers listed herein as SEQ ID NOs: 3-34, and SYBR Green PCR master reaction mix (AB applied Sciences, Life Technologies, Grand Island, N.Y.) on an MJ Research OPTICON I instrument (Bio-Rad) with the following amplification program: 95° C. for 15 minutes, followed by 40 cycles of 95° C. for 15 seconds, 58° C. for 20 seconds, 72° C. for 25 seconds, and 7° C. for 1 minute. Melting curves were performed for each product from 30° C. to 95° C. reading every 0.5° C. with a 6-second dwell time. The fold changes in mRNA expression were calculated by normalizing to hypoxanthine phosphoribosyltransferase (HPRT1) and TATA-box binding protein associated factor (TAF9) for mouse tissues and endothelial cells, or β-2 microglobulin (B2M) mRNA levels for spleen and isolated splenocytes. […]

[2] = test system: CD47; test: In vivo morpholino knockdown of CD47 in WT mice; design: species or system mouse; settings: for Oct4 mRNA level in spleen / Sox2 mRNA level in spleen / c-Myc mRNA level in spleen: at 48 hours, WT mice; for CD47 protein expression in vivo: intraperitoneal injection into WT mice
Procedure: RNA extraction and Real Time PCR: Total RNA was extracted using TRIzol® reagent (Invitrogen, Rockville, Md.) 24-36 hours after transfection or as indicated. Harvested mouse tissues were frozen in liquid nitrogen or placed into RNA Later™ RNA Stabilization Reagent (Ambion, Life Technologies, Grand Island, N.Y.). Whole organs (lungs, spleen, kidney, testis, skeletal muscle, brain, heart, and liver) were homogenized in TRIzol® reagent, and RNA was isolated, cDNA was prepared using First Maxima First Strand cDNA Synthesis kit for RT-qPCR (Fermentas Life Sciences, Glen Burnie, Md.). Real Time PCR was performed using the primers listed herein as SEQ ID NOs: 3-34, and SYBR Green PCR master reaction mix (AB applied Sciences, Life Technologies, Grand Island, N.Y.) on an MJ Research OPTICON I instrument (Bio-Rad) with the following amplification program: 95° C. for 15 minutes, followed by 40 cycles of 95° C. for 15 seconds, 58° C. for 20 seconds, 72° C. for 25 seconds, and 7° C. for 1 minute. Melting curves were performed for each product from 30° C. to 95° C. reading every 0.5° C. with a 6-second dwell time. The fold changes in mRNA expression were calculated by normalizing to hypoxanthine phosphoribosyltransferase (HPRT1) and TATA-box binding protein associated factor (TAF9) for mouse tissues and endothelial cells, or β-2 microglobulin (B2M) mRNA levels for spleen and isolated splenocytes. B2M was used for normalization of mRNA levels in human cells. Note that the total RNA yield per cell was higher for all CD47-null and CD47-deficient cells and tissues as compared to WT.
CD47 knockdown in T cells and in WT mice: A translation-blocking antisense morpholino oligonucleotide complementary to human and murine CD47 ([…]; SEQ ID NO: 35) and a 5-base mismatch control morpholino (CGTgACAGcCAcGACCgACTGCgCA; SEQ ID NO: 36) were obtained from GeneTools, LLC (Philomath, Oreg.) as previously described (Isenberg et al., Circ Res 100, 712-720, 2007). Primary T cells isolated from c-Myc EGFP knock-in mouse were transfected using morpholinos (2.5 μM) along with Endo-porter (GeneTools, LLC) delivery reagent according to manufacturer's instructions. Mice were treated by injection of 750 μl of 10 μM morpholino in saline as described (Maxhimer et al., Sci. Transl. Med. 1, 3ra7, 2009). Organs were harvested for mRNA isolation after 48 hours.

[3] = test system: HUVEC; test: Sustained proliferation / self-renewal of HUVEC in continuous culture; assay type: cell-based, human
From the text: Human umbilical vein endothelial cells (HUVEC), which express CD47, normally become senescent with repeated passage in tissue culture (FIG. 16A).
(§1) Therefore, antisense suppression of CD47 is sufficient to induce reprogramming of primary endothelial cells of a mesodermal lineage into an ectodermal lineage.

[4] = test system: HUVEC; test: MTS proliferation assay of treated HUVEC; assay type: cell-based, human
Procedure: Cell proliferation assays: Equal numbers of mouse lung endothelial cells from WT and CD47 (Passage 1) were plated in 96 well plates using RPMI+1% FBS. After 72 hours, net cell proliferation was assessed by the increase in formazan absorbance versus controls assessed at time 0 using Cell Titer 96R aqueous MTS kit (Promega, Madison, Wis.). DNA synthesis was measured using a BrdU Assay (EMD Biosciences, Billerica, Mass.).
Proliferative capacities of the treated HUVEC (CD47 morpholino, 7N3 peptide, or 604 control peptide) were assessed using MTS assays.

[5] = test system: HUVEC; test: Direct neural differentiation of HUVEC; assay type: cell-based, human
Procedure: as §1
(§2) A new vial of HUVEC at passage 1 was thawed and split in to two 25 cm^3 Nunc tissue culture flasks. One flask (P1) was treated with CD47-MO (2.5 μM). The other was kept as untreated. The HUVEC were transferred in to new Nunc tissue culture flask 75 cm^3 and cultured for 2 weeks using EGM2 medium. After 2 weeks, the HUVEC (untreated and CD47-MO treated) were assessed for generation of EBs, neural differentiation, and cardiomyocytes differentiation. […] Direct Neural Differentiation media: Equal numbers of HUVEC cells (untreated and cd47-mo) were cultured with neural basal media (same for mouse lung endothelial cells) for 6 days. […] After 6 days, the neural basal media was replaced with neural differentiation media (same used for mouse lung endothelial cells). None of the untreated HUVEC survived.

[6] = test system: HUVEC; test: EB formation of HUVEC in serum free medium; assay type: cell-based, human; settings: after 3-6 days
Procedure: as §2

[7] = test system: HUVEC; test: Direct cardiomyocyte differentiation of HUVEC; assay type: cell-based, human
Procedure: Finally, equal numbers of HUVEC (untreated and cd47-mo treated at passage 1) were plated in 6-well plates with EGM2 media for 24 hours. The next day, EGM2 medium was replaced with cardiomyocyte differentiation media (Millipore). […] CD47-MO cells survived up to 10 days. Thus, antisense suppression of CD47 is sufficient to induce reprogramming of primary endothelial cells into cardiomyocyte lineage.

## CGTCACAGGCAGGACCCACTGCCCA (all phosphorodiamidate morpholino (PMO)) [CD47 morpholino]
[1]; at 24 h, morpholino 2.5 μM
  increase in c-Myc mRNA level: 7 fold
[1]; in words, legend says WT lung endothelial cells
  c-Myc mRNA expression (FIG. 6A): increases
[2]
  Oct4 mRNA level in spleen: induction
  Sox2 mRNA level in spleen: induction
  c-Myc mRNA level in spleen: induction
  CD47 protein expression in vivo: significantly decreased
[2]; listed as CD47-MO
  Oct4 mRNA level in spleen: elevates
  Sox2 mRNA level in spleen: elevates
  c-Myc mRNA level in spleen: elevates
[2]; listed as CD47-morpholino
  CD47 protein expression in vivo: knockdown
[3]; antisense CD47 morpholino at 2.5 μM, one treatment
  self-renewal: enabled self-renewal
[3]; second treatment, same concentration (2.5 μM)
  proliferative response after second treatment: enhanced proliferative response
[4]; 3 weeks post-treatment, relative to control HUVEC
  proliferation (MTS): significantly increased proliferation
[4]; 6 days post-treatment
  proliferation (MTS): slight but not significant enhancement of proliferation
[5]; 6 days, CD47-MO 2.5 μM
  survival in neural basal media: survived better than untreated
[5]; after 6 days neural basal media
  phenotype in neural differentiation media: exhibited neural phenotype
[5]; direct transfer into neural differentiation medium
  appearance of cells with neuronal phenotypes: sporadic appearance of cells with neuronal phenotypes
[5]; numbers were low
  survival in neural differentiation media: up to 15 days
[6]
  cell aggregation in serum free medium: formed different phenotype cell aggregation
[7]
  survival in cardiomyocyte differentiation media: up to 10 days
[7]; untreated HUVEC unable to survive after 3 days
  survival and differentiation in cardiomyocyte differentiation media: survived and underwent differentiation
